Patent publication US11020358B2, “Method for the anti-senescence of and/or rejuvenating stem cells” (GWO XI STEM CELL APPLIED TECHNOLOGY CO., LTD., priority 2014, dated 2021)

Assays:
ADSCs [1] = assay: Flow cytometry of surface antigens of ADSCs; type: cell-based, human; conditions: compared to untreated group
Protocol: (§1) Four portions of equal volume of the above culture medium containing the sub-cultured ADSCs were separately handled by adding thereinto H2O2 (purchased from Sigma-Aldrich) at a final concentration of 100 μM and reacting for 2 hours to induce senescence of the ADSCs, replacing the culture medium with a fresh culture medium, adding thereinto TC (trans-cinnamaldehyde, purchased from Sigma-Aldrich) at a final concentration of 0, 2, 4 or 6 μM and reacting for 6 hours, so as to obtain “H2O2 group (i.e., treated with H2O2 for 2 hours, but not treated with TC),” “H2O2+TC2 group (i.e., treated with H2O2 for 2 hours and then treated with 2 μM of TC for 6 hours),” “H2O2+TC4 group (i.e., treated with H2O2 for 2 hours and then treated with 4 μM of TC for 6 hours),” and “H2O2+TC6 group (i.e., treated with H2O2 for 2 hours and then treated with 6 μM of TC for 6 hours)” ADSCs.
Four portions of equal volume of the above culture medium containing the sub-cultured ADSCs were handled by adding thereinto TC at final concentrations of 0, 2, 4 and 6 μM respectively, and reacting for 6 hours to obtain “untreated group (i.e., without any treatment),” “TC2 group (i.e., treated only with 2 μM of TC),” “TC4 group (i.e., treated only with 4 μM of TC)” and “TC6 group (i.e., treated only with 6 μM of TC)” ADSCs. […]

ADSCs [2] = assay: SA-β-gal activity assay in ADSCs; type: cell-based, human
Protocol: as §1
Four portions of equal volume of the above culture medium containing the sub-cultured ADSCs were handled by adding thereinto TC at final concentrations of 0, 2, 4 and 6 μM respectively, and reacting for 6 hours to obtain “untreated group (i.e., without any treatment),” “TC2 group (i.e., treated only with 2 μM of TC),” “TC4 group (i.e., treated only with 4 μM of TC)” and “TC6 group (i.e., treated only with 6 μM of TC)” ADSCs.
It has been known that senescent cells in acidic environment (e.g., pH 6.0) show the activity of SA-β-gal. Therefore, the senescence level of cells can be reflected by measuring the expression level of SA-β-gal in the cells.
(§2) The ADSCs in each sample of the group obtained from Example 1 (1) were washed with PBS twice, fixed with 3% formaldehyde and washed with PBS once. […]
The staining solution was removed. […] The cells were observed and photographed under a microscope with 10-fold magnification, and the percentage of SA-β-gal activity-positive cells was calculated.

telomerase = assay: Telomerase activity assay (TRAP) in ADSCs; type: cell-based, human
Protocol: It has been know that the activity of telomerase plays a key role in controlling cell senescence. The activity of telomerase in each of the “untreated group,” “H2O2 group” and “TC6 group” ADSCs from Example 1 (1) was analyzed by Telomeric Repeat Amplification Protocol (TRAP) as follows. The 3′-end primer of telomere (i.e., Telo TAGGG) was extended by PCR under the catalysis of telomerase to amplify the TTAGGG repeat sequence. Then, signals of the product were detected by enzyme-linked immunosorbent assay (ELISA). The results are shown in FIG. 7, wherein the activity of telomerase in HEK293 cells (without any treatment) was served as a positive control group.

WJSCs = assay: SA-β-gal activity assay in WJSCs; type: cell-based
Protocol: Three portions of equal volume of the above culture medium containing the sub-cultured WJSCs were provided. The first and second portions were handled by adding thereinto H2O2 at a final concentration of 100 μM, reacting for 2 hours to induce senescence of the WJSCs, replacing the culture medium with a fresh culture medium, adding thereinto TC at final concentrations of 0 and 6 μM, respectively, and reacting for 6 hours to obtain “H2O2 group (i.e., treated with H2O2 for 2 hours, but not treated with TC)” and “H2O2+TC6 group (i.e., treated with H2O2 for 2 hours and then treated with 6 μM of TC for 6 hours) WJSCs. The third portion without any treatment was referred to as “untreated group” WJSCs.
as §2
The staining solution was removed. […] The cells were observed and photographed under a microscope with 10-fold magnification, and the percentage of SA-β-gal activity-positive cells was calculated. […]

| activity of telomerase (telomerase; H2O2 group ADSCs compared to untreated group) | SMILES | expression phenotypes of the surface antigens (ADSCs [1]; 100 μM H2O2 2 h then 6 μM TC 6 h (H2O2+TC6 group)) | number of the SA-β-gal activity-positive cells (ADSCs [2]; H2O2-senescent ADSCs, 2, 4 and 6 μM TC 6 h, compared to H2O2 group) | number of the SA-β-gal activity-positive cells (ADSCs [2]; non-senescent ADSCs, 2, 4 and 6 μM TC 6 h, compared to untreated group) | activity of telomerase (telomerase; ADSCs, 6 μM TC (“TC6 group”), compared to H2O2 group) | number of the SA-β-gal activity-positive WJSCs (WJSCs; H2O2+TC6 group (6 μM TC 6 h after H2O2) compared to H2O2 group) | expression phenotypes of the surface antigens (ADSCs [1]; 100 μM H2O2 2 h (H2O2 group)) | number of the SA-β-gal activity-positive cells (ADSCs [2]; ADSCs, 100 μM H2O2 2 h, compared to untreated group) | number of the SA-β-gal activity-positive WJSCs (WJSCs; H2O2 group (100 μM 2 h) compared to untreated group) |
| --- | --- | --- | --- | --- | --- | --- | --- | --- | --- |
|  | O=C/C=C/c1ccccc1 [TC, trans-cinnamaldehyde] | not significantly changed | significantly reduced | significantly reduced along with the increment in the concentration of TC | significantly increased | significantly reduced |  |  |  |
| significantly decreased | OO [H2O2, reference compound] |  |  |  |  |  | not significantly changed | significantly increased | significantly increased |
